Experimental data reported in patent US20070265164A1, “Active Substances for Increasing Pathogenic Defense in Plants and Methods for the Detection Thereof” (Bayer Cropscience GmbH, priority 2004, published 2007).

Experiments:
[1] = tested on: jasmonic acid biosynthesis; experiment: GEP, induction pattern of the jasmonic acid biosynthesis genes; assay type: in vivo, barley; settings: compared with the other safeners and resistance inductors
Procedure: Barley plants (cv. Baronesse) were grown in compost-filled pots (diameter: 10 cm) for 10 days in a controlled-environment cabinet under defined light, humidity and temperature conditions (white light, 70% atmospheric humidity, 24° C.). At the time of spray application, the seedlings were approximately 15 cm in size. The test substances selected in this example were molecules which differ markedly in their structure and which have a well documented pronounced safener effect, and other molecules which are known from the literature to have an effect on plant stress and pathogen tolerance (Table 1). The substances were prepared as stock solutions in DMSO (dimethyl sulfoxide) at c=10 mg/ml). This was used for preparing dilutions in water supplemented with 0.2% Agrotin (comprises polyvinyl alcohol, silicones, polysaccharides and pH regulators, manufacturer: Bayer CropScience AG, Monheim, Germany), as wetter, to give the application rates shown in the table. The amount of liquid for the spray application was 800 μl per pot, corresponding to 800 l/ha. For each 800 μl of spray mixture, 16 μl of EC premix: diacetone alcohol=1:6 were additionally added as formulation auxiliaries. The substances listed in Table 1 were applied to the leaves by means of a pneumatic spray pistol. […] The fluorescent data obtained were analyzed with the software Microarray Suite 5 from Affymetrix. […]

Rhopalosiphum padi = experiment: Repellent effect of safener-treated plants on phytopathogenic insects; assay type: in vivo; settings: barley sprayed with 150 g a.i./ha, infested 6 h or 24 h after application, average
Procedure: Barley plants (cv. Baronesse) were grown as described in Example 1 and, after 10 days, treated by spray application with 150 g a.i./ha of isoxadifen-ethyl (S 3) or blank formulation. The experiments were carried out in replications of in each case 10 pots.
6 hours or 24 hours after the substance had been applied, all pots were infested uniformly with a population of the phytopathogenic aphid Rhopalosiphum padi. The experiments were evaluated after 7 days and 14 days by counting the animals on the leaves.

aphids = experiment: Plant-free Sachez test, direct toxicity; assay type: in vivo
Text: A direct toxicity of isoxadifen-ethyl (S3) against aphids was not detected in the plant-free Sachez test.

Oxophytodienoate (OPDA) = Oxophytodienoate (OPDA) concentration in leaves of treated plants, GC-MS/MS; assay type: in vivo, barley
Procedure: Barley plants (cv. Baronesse) were grown under the conditions described in Example 1 and treated by spray application with safener isoxadifen-ethyl (S 3). The application rates were chosen as follows:
(1) 30 [g a.i./ha]; (2) 150 [g a.i./ha]; (3) blank formulation (no active ingredient)
[…] All samples were designed in each case as replications of 3 pots.
The octadecanoates and jasmonates were processed from the leaves following a procedure described in the literature (Müller A, Düchting P and Weiler E W (2002)), A multiplex GC-MS/MS technique for the sensitive and quantitative single-run analysis of acidic phytohormones and related compounds, and its application to Arabidopsis thaliana. Planta, 216, 44-56).
300 mg of plant material were extracted for each measuring point.
50 pmol [^13C]2-JA and 100 pmol [17,17,17,18,18-^2H]-cis-OPDA were applied as internal standards. The extracts were purified via aminopropyl anion-exchange chromatography in miniature solid-phase exchanger columns which had been prepared in-house.
The results are shown in Tables 3a to 3d, the values shown being in each case means of the 3 applications.

CCOC(=O)C1=NOC(c2ccccc2)(c2ccccc2)C1 [S3, Isoxadifen-ethyl]
Effect on jasmonic acid biosynthesis (induction pattern) [1]: most pronounced | Aphid populations less than the controls (Rhopalosiphum padi; after 7 days): 50% | Aphid populations less than the controls (Rhopalosiphum padi; after 14 days): 70% | Direct toxicity against aphids (aphids): not detected | Oxophytodienoate (OPDA) concentration (Oxophytodienoate (OPDA); 30 g a.i/ha, 0 hours): 2500 pmol/g leaf tissue | Oxophytodienoate (OPDA) concentration (Oxophytodienoate (OPDA); 30 g a.i/ha, 1 hour): 6500 pmol/g leaf tissue | Oxophytodienoate (OPDA) concentration (Oxophytodienoate (OPDA); 30 g a.i/ha, 2 hours): 3750 pmol/g leaf tissue | Oxophytodienoate (OPDA) concentration (Oxophytodienoate (OPDA); 30 g a.i/ha, 4 hours): 7000 pmol/g leaf tissue | Oxophytodienoate (OPDA) concentration (Oxophytodienoate (OPDA); 30 g a.i/ha, 6 hours): 9000 pmol/g leaf tissue | Oxophytodienoate (OPDA) concentration (Oxophytodienoate (OPDA); 150 g a.i./ha, 0 hours): 2600 pmol/g leaf tissue | Oxophytodienoate (OPDA) concentration (Oxophytodienoate (OPDA); 150 g a.i./ha, 1 hour): 2800 pmol/g leaf tissue | Oxophytodienoate (OPDA) concentration (Oxophytodienoate (OPDA); 150 g a.i./ha, 2 hours): 1800 pmol/g leaf tissue | Oxophytodienoate (OPDA) concentration (Oxophytodienoate (OPDA); 150 g a.i./ha, 4 hours): 2200 pmol/g leaf tissue | Oxophytodienoate (OPDA) concentration (Oxophytodienoate (OPDA); 150 g a.i./ha, 6 hours): 5100 pmol/g leaf tissue | Oxophytodienoate (OPDA) concentration (Oxophytodienoate (OPDA); 150 g a.i./ha, 12 hours): 2400 pmol/g leaf tissue | Oxophytodienoate (OPDA) concentration (Oxophytodienoate (OPDA); 150 g a.i./ha, 24 hours): 5100 pmol/g leaf tissue | Oxophytodienoate (OPDA) concentration (Oxophytodienoate (OPDA); 150 g a.i./ha, 48 hours): 1900 pmol/g leaf tissue | Increase in OPDA concentration relative to blank formulation samples (Oxophytodienoate (OPDA); maximum over rates and times): ≤ 5 times | Oxophytodienoate (OPDA) concentrations, range over the experiment (Oxophytodienoate (OPDA); summary of Tables 3a, 3b, all rates and times): 1800-9000 pmol/g leaf tissue
